Molecular target: T1, S1P1 receptor (Homo sapiens, UniProt P21453)
T1 construct: expressed in transfected cells; membranes
Test: S1P1 GTPγS binding assay
Type: biochemical
Conditions: membranes of Rat Basophilic Leukaemia cells (RBL) stably expressing S1P1 receptor, 35S-GTPγS
Procedure: Rat Basophilic Leukaemia cells (RBL) stably expressing S1P1 receptor were grown to 80% confluency before being harvested into 10 ml Phospho-Buffered Saline (PBS) and centrifuged at 1200 rpm for 5 minutes. After removal of the supernatant, the pellet was re-suspended and homogenised in 20 volumes assay buffer (20 mM HEPES pH 7.4, 100 mM NaCl, 10 mM MgCl2.6H2O, 10 μM GDP Saponin 10 μg/ml). The membrane suspension was further centrifuged for 20 minutes at 20,000 rpm re-homogenised and spun again. Following the second centrifugation the pellet was resuspended in an appropriate volume (1 ml for each flask of cells) and assayed for protein concentration.
Concentrated stock of S1P was sonicated before serial dilutions were prepared from a starting concentration of 10^−5 M. Diluted membranes (10 μg/well) were incubated with various concentrations of S1P and 0.3 nM ^35S-GTPγS (NEN; specific activity 1250 Ci/mmol) in 96 deep well plates. Binding was performed at 30° C. for 45 minutes and terminated by harvesting the membranes onto GF/B filter plates using a Packard Universal Harvester. After drying the plates for 45 minutes, 50 μl of Microscint 0 was added to each well and binding measured on a Topcount NXT (Perkin Elmer). Data was analysed using Graphpad Prism 4 and expressed as percentage stimulation above basal. […]

T1 sequence (P21453 whole entry): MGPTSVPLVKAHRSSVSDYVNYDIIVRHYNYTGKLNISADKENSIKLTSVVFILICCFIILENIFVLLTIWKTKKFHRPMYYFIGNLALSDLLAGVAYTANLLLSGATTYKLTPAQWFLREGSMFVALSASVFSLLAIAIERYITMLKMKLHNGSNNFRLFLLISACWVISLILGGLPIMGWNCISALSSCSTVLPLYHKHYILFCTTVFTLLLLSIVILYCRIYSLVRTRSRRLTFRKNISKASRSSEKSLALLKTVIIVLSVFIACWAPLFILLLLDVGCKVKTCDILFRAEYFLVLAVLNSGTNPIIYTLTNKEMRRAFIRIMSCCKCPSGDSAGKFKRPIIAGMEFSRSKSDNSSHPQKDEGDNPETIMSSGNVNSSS

Work on `CC(C)Oc1ccc(-c2nc(-c3ccc4c(cnn4CCC(=O)O)c3)no2)cc1Cl` [Example 1, 3-[5-(5-{3-Chloro-4-[(1-methylethyl)oxy]phenyl}-1,2,4-oxadiazol-3-yl)-1H-indazol-1-yl]propanoic acid] yielded an EC50 of under 1000 nM.
